{"source": "EPA's ToxValDB 9.5 (doi:10.2903/j.efsa.2010.1554)", "key": {"Anas platyrhynchos": {"tested_on": "Anas platyrhynchos", "details": "for LD50: oral, mortality"}, "Apis mellifera": {"tested_on": "Apis mellifera", "details": "acute; duration: 48 hours; dermal; mortality"}, "Canidae": {"tested_on": "Canidae", "details": "chronic; duration: 1 years; oral; Dog Other; organ weight"}, "Colinus virginianus": {"tested_on": "Colinus virginianus", "details": "acute, oral, mortality"}, "Daphnia magna": {"tested_on": "Daphnia magna", "details": "chronic/long-term; duration: 21 days; reproduction"}, "Rattus norvegicus": {"tested_on": "Rattus norvegicus", "details": "for NOAEL: reproduction developmental"}}}
{"compound": "COc1cc(OC)nc(NC(=O)NS(=O)(=O)c2c(-c3nnn(C)n3)cnn2C)n1", "note": "[Azimsulfuron]", "values": [{"measurement": "LD50", "setting": "Anas platyrhynchos; acute, unspecified", "value": "> 2250", "unit": "mg/kg-day"}, {"measurement": "NOEL", "setting": "Anas platyrhynchos; reproductive", "value": 172, "unit": "mg/kg-day"}, {"measurement": "LD50", "setting": "Anas platyrhynchos; short-term, feed", "value": "> 2040", "unit": "mg/kg-day"}, {"measurement": "LD50", "setting": "Apis mellifera", "value": "> 25", "unit": "µg/piece"}, {"measurement": "NOAEL", "setting": "Canidae", "value": 17.9, "unit": "mg/kg-day"}, {"measurement": "LD50", "setting": "Colinus virginianus; diet", "value": "> 3150", "unit": "mg/kg-day"}, {"measurement": "LD50", "setting": "Colinus virginianus", "value": "> 2250", "unit": "mg/kg-day"}, {"measurement": "NOEC", "setting": "Daphnia magna", "value": 5.4, "unit": "mg/L"}, {"measurement": "LC50", "setting": "Oncorhynchus mykiss; acute, duration: 96 hours, mortality", "value": 154, "unit": "µg/mL"}, {"measurement": "NOEC", "setting": "Oncorhynchus mykiss; chronic/long-term, duration: 90 days, time to hatch", "value": 6.3, "unit": "mg/L"}, {"measurement": "LD50", "setting": "Rattus norvegicus; acute, oral, mortality", "value": "> 5000", "unit": "mg/kg-day"}, {"measurement": "NOAEL", "setting": "Rattus norvegicus; organ weight", "value": 9.6, "unit": "mg/kg-day"}, {"measurement": "NOAEL", "setting": "Rattus norvegicus; reproduction", "value": 76.6, "unit": "mg/kg-day"}, {"measurement": "LC50", "setting": "Tagia sp.; acute, duration: 14 days, mortality", "value": "> 1000", "unit": "mg/kg"}, {"measurement": "NOEC", "setting": "Tagia sp.; chronic/long-term, duration: 56 days, reproduction", "value": 12.5, "unit": "mg/kg"}]}
